Experiment [1] has as its target T1, Adenosine receptor A1 (Homo sapiens, UniProt P30542).
T1 sequence (P30542 whole entry): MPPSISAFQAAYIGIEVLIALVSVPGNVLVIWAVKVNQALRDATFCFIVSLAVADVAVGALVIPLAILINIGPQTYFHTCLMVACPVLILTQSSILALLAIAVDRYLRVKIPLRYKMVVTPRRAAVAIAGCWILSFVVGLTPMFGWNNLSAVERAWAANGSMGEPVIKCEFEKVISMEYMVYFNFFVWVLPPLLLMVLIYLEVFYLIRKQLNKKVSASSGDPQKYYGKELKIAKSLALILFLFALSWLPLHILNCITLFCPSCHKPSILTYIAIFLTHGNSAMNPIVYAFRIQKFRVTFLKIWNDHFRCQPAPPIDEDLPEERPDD

Experiment [2] concerns the target T2, Alpha-2A adrenergic receptor (Homo sapiens, UniProt P08913).
T2 sequence (P08913 whole entry): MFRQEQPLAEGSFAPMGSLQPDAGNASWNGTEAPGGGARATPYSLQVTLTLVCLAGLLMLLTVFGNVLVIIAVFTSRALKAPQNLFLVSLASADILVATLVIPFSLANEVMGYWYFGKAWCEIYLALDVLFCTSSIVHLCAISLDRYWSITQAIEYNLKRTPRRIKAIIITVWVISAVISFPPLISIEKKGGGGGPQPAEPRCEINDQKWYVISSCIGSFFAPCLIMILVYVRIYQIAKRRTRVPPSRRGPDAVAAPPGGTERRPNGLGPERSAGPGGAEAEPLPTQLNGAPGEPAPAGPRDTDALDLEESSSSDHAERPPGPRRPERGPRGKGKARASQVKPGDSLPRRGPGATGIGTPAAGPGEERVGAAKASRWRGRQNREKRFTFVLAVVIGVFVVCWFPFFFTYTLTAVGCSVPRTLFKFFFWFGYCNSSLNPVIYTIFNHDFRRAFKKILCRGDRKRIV
In kind it is functional, cell-based.

The target of experiment [3] is T3, B2 bradykinin receptor (Homo sapiens, UniProt P30411).
T3 sequence (P30411 whole entry): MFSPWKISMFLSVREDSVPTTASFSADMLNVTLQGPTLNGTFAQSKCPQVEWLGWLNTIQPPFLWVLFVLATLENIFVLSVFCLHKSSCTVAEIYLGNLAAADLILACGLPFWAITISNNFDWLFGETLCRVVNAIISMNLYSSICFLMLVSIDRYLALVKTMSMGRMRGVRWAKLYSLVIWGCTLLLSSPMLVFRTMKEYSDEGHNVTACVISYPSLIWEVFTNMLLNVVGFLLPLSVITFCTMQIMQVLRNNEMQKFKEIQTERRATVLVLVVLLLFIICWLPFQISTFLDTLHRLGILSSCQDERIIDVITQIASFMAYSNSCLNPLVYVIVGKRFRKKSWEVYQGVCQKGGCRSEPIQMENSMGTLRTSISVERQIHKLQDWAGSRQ

Experiment [4] addresses T4, Muscarinic acetylcholine receptor M2 (Homo sapiens, UniProt P08172).
T4 sequence (P08172 whole entry): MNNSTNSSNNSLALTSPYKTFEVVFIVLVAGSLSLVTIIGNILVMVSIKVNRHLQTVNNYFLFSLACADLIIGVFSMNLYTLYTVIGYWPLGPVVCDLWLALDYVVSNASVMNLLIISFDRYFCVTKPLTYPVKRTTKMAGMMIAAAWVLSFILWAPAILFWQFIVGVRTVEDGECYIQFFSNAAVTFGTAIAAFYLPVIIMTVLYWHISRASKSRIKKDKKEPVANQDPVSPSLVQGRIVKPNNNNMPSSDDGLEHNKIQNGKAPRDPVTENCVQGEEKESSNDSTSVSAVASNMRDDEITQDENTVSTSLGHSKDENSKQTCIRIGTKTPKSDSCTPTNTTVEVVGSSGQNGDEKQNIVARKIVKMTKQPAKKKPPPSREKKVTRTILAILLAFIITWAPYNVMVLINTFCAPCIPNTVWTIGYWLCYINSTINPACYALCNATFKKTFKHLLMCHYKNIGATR
In kind it is functional, cell-based.

Experiment [5] addresses T5, 5-hydroxytryptamine receptor 1A (Homo sapiens, UniProt P08908).
T5 sequence (P08908 whole entry): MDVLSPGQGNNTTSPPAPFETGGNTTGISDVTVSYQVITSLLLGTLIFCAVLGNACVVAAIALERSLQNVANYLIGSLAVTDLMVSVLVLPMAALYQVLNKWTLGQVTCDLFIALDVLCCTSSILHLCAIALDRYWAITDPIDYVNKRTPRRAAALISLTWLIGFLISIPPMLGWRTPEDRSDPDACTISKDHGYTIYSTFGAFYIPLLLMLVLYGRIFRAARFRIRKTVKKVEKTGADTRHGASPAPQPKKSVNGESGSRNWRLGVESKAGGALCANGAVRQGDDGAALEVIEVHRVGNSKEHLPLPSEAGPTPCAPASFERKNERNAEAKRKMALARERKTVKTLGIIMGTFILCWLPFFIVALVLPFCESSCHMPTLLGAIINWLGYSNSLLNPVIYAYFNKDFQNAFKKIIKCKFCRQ
In kind it is functional, cell-based.

Experiment [6] concerns the target 5-hydroxytryptamine receptor 2B (Homo sapiens, UniProt P41595). In kind it is functional, cell-based.
The target in experiment [7] is Delta-type opioid receptor (Homo sapiens, UniProt P41143).
The target in experiment [8] is Kappa-type opioid receptor (Homo sapiens, UniProt P41145).
Experiment [9] has as its target T6, Prostaglandin G/H synthase 1 (Rattus norvegicus, UniProt Q63921).
T6 sequence (Q63921 whole entry): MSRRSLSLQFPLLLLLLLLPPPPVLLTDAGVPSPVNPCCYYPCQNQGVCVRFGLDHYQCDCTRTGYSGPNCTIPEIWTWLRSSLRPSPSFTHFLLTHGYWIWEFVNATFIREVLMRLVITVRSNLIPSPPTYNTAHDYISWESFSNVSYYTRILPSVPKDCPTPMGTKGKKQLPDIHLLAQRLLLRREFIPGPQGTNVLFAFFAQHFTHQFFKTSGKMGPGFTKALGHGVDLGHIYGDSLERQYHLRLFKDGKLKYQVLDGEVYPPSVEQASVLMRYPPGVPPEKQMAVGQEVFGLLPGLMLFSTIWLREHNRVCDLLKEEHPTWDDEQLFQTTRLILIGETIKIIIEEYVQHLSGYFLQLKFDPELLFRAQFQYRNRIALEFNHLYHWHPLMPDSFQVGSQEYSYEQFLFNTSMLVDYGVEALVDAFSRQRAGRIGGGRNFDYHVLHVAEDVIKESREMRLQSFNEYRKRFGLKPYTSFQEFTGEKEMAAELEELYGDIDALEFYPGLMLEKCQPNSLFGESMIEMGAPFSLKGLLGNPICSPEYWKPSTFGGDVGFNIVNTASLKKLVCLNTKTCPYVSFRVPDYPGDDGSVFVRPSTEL
In kind it is functional.
Further: assay procedure not described here.

Delta-type opioid receptor, sequence (P41143 whole entry): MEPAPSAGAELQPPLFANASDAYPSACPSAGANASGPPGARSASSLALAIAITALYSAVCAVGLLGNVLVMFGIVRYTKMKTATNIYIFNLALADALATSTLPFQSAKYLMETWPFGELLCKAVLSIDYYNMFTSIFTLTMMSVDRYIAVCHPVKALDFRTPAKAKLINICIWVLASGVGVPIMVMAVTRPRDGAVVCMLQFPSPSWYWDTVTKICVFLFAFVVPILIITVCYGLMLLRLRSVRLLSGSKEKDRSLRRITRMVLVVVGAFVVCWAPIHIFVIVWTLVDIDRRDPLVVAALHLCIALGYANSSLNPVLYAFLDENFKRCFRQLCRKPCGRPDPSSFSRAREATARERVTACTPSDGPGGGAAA
5-hydroxytryptamine receptor 2B, sequence (P41595 whole entry): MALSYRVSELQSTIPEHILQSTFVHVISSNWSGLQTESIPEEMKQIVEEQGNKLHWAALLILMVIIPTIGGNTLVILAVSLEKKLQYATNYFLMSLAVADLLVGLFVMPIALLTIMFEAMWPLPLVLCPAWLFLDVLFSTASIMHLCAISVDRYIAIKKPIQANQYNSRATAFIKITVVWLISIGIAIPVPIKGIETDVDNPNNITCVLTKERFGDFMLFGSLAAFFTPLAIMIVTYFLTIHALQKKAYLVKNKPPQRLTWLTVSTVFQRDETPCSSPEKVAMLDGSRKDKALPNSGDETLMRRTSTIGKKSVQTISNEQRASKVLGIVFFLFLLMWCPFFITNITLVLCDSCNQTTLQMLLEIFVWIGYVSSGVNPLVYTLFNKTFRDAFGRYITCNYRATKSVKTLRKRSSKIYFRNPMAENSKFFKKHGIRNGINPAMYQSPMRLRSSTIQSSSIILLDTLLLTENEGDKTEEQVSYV
Kappa-type opioid receptor, sequence (P41145 whole entry): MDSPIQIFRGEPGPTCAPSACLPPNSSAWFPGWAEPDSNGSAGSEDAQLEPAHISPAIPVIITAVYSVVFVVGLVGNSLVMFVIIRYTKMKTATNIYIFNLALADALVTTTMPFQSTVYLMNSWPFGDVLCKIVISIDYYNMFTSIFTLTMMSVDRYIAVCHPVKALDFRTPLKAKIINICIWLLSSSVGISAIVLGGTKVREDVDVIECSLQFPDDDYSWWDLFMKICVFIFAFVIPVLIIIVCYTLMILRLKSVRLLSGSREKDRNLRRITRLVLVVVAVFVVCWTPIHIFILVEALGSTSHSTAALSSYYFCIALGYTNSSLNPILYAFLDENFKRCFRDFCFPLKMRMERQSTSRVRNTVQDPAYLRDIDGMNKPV

For orientation: AC50 means the midpoint of the concentration-response curve, whichever way the signal moves. A higher AC50 goes with activity only at high concentration. As for `CCCCC(C)(O)C/C=C/[C@H]1[C@H](O)CC(=O)[C@@H]1CCCCCCC(=O)OC` (stereo not given in full) [MISOPROSTOL], the AC50 in [1], in experiment [2], in [3], in experiment [4], in experiment [5] and in experiment [6] was > 30 µM in each case. Besides, the AC50 in experiment [7], in [8] and in [9] was > 30 µM each time.
As for `COc1ccc(C(=O)N2CCN(c3ccc4c(c3)CCC(=O)N4)CC2)cc1OC` [VESNARINONE], the AC50 in experiment [1], in experiment [2], in experiment [3], in experiment [4], in experiment [5] and in experiment [6] was > 30 µM in each case. In addition, the concentration at half-maximal activity (AC50) in experiment [7], in experiment [8] and in experiment [9] was > 30 µM in each case.
Turning to `CCCOc1ccc(C(=O)OCCN(CC)CC)cc1N` [PROPARACAINE], the AC50 in [1], in experiment [2], in experiment [3], in experiment [4], in [5] and in [6] was > 30 µM in each case. Moreover, the AC50 in experiment [7] is > 30 µM; in [8], > 30 µM; in experiment [9] it was 0.75 µM.
With `Nc1nc2ccc(OC(F)(F)F)cc2s1` [RILUZOLE], the AC50 in [1], in [2], in experiment [3], in [4], in experiment [5] and in experiment [6] was > 30 µM in each case. Moreover, the AC50 in experiment [7], in [8] and in experiment [9] was > 30 µM each time.
For the molecule `[H]/N=C(/N)c1ccc(NCc2nc3cc(C(=O)N(CCC(=O)O)c4ccccn4)ccc3n2C)cc1` [DABIGATRAN], the AC50 in [1], in [2], in experiment [3], in [4], in [5] and in experiment [6] was > 30 µM in each case. For the same molecule, the AC50 in [7], in experiment [8] and in experiment [9] was > 30 µM throughout.
`O=C1CN=C(c2ccccc2)c2cc(Cl)ccc2N1CC(F)(F)F` [HALAZEPAM]: the AC50 in [1], in [2], in experiment [3], in experiment [4], in experiment [5] and in experiment [6] was > 30 µM each time. Besides, the values for the concentration at half-maximal activity (AC50) in experiment [7], in experiment [8] and in experiment [9] were > 30 µM, 20 µM and > 30 µM, respectively.
For `C=C1CC[C@@]2(O)[C@H]3Cc4ccc(O)c5c4[C@@]2(CCN3CC2CC2)[C@H]1O5`, the AC50 in [1], in [2], in experiment [3], in experiment [4], in [5] and in experiment [6] was > 30 µM each time. Besides, in experiment [9], the AC50 was > 30 µM.
`Nc1ncnc2c1ncn2[C@@H]1O[C@H](COP(=O)(O)O)[C@@H](O)[C@H]1O` [ADENOSINE PHOSPHATE]: the AC50 in [1], in experiment [2], in [3], in experiment [4], in experiment [5] and in experiment [6] was > 30 µM each time. In addition, the AC50 in experiment [7], in experiment [8] and in [9] was > 30 µM each time.
For `CCCCCOC(=O)Nc1nc(=O)n([C@@H]2O[C@H](C)[C@@H](O)[C@H]2O)cc1F` [CAPECITABINE], the AC50 in experiment [1], in experiment [2], in experiment [3], in experiment [4], in experiment [5] and in experiment [6] was > 30 µM each time. Moreover, the AC50 in experiment [7], in experiment [8] and in [9] was > 30 µM each time.
Consider `Cc1cccc(C)c1NC(=O)C1CCCCN1C` (stereo not given) [MEPIVACAINE], for which the AC50 in experiment [1], in experiment [2], in experiment [3], in [4], in experiment [5] and in [6] was > 30 µM throughout. Also, the AC50 in [7], in experiment [8] and in [9] was > 30 µM each time.
With `CC/C=C\C/C=C\C/C=C\CCCCCCCC(=O)O` [LINOLENIC ACID], the AC50 in experiment [1], in [2], in [3], in [4], in experiment [5] and in [6] was > 30 µM each time. For the same molecule, the AC50 was > 30 µM in experiment [7], > 30 µM in experiment [8] and 6.3 µM in experiment [9].
For `CCCC(CCC)C(=O)O[C@H]1C[C@H]2CC[C@@H](C1)[N+]2(C)C` [ANISOTROPINE], the AC50 in experiment [1], in [2], in experiment [3], in experiment [4], in experiment [5] and in experiment [6] was > 30 µM each time. The AC50 in experiment [7], in [8] and in experiment [9] was > 30 µM throughout.
`CCCCCCC(C)(C)c1cc(O)c2c(c1)OC(C)(C)C1CCC(=O)CC21` (stereo not given) [NABILONE]: the AC50 is > 30 µM in experiment [1]; > 30 µM in experiment [2]; > 10 µM in experiment [3]; > 30 µM in [4]; > 30 µM in experiment [5]; > 30 µM in experiment [6]. Also, the AC50 in experiment [7], in experiment [8] and in [9] was > 30 µM throughout.

For the origin of these results see ChEMBL document CHEMBL5291721, “A preclinical secondary pharmacology resource illuminates target-adverse drug reaction associations of marketed drugs” (Nat Commun, 2023).
